Test results from patent publication US7507733B2, “11b-HSD1 inhibitors for the treatment of diabetes” (Hoffmann-La Roche Inc., priority 2004, dated 2009).

Key:
11beta-HSD1 [1] = target: T1, 11beta-HSD1 (Homo sapiens, UniProt P28845); parameters: host or cells: human subjects (in vivo); conditions: treatment of humans with carbenoxolone; cited from earlier work
11beta-HSD1 [2] = target: T1, 11beta-HSD1; assay: Microsome assay: cortisone to cortisol conversion, ELISA detection; format: biochemical; parameters: The cDNA encoding the human 11beta-HSD1 protein was cloned into the expression vector pcDNA3; made in house; host or cells: HEK293 cells (ATCC CRL-1573), transient transfection; microsomal fraction; conditions: microsomes from HEK293 cells transiently expressing human 11beta-HSD1; 60 min, 37° C.; Cortisone 50-200 nM, NADPH 1 mM; read-out: h 11-beta-HSD 1 IC50
Method: The cDNA encoding the human 11beta-HSD1 protein was cloned into the expression vector pcDNA3 ([…]). This construct (for details see Alex Odermatt et al.; J Biol Chem., 1999, Vol. 274, Issue 40, 28762-28770) was used to transiently express the protein in HEK293 cells (ATCC number: CRL-1573, described in Graham, F. L., Smiley, J., Russell, W. C., Nairn, R.; (1977)) using lipofectamine. 48 h after transfection cells were washed twice with ice-cold PBS (Phsophate buffered Saline). To 1 volume of cell suspension in PBS 2 volumes of ice-cold lysis buffer (50 mM Tris; pH7.5; 1 mM EDTA; 100 mM NaCl) were added. The cells were lysed by Potter-homogenization (20 strokes). The resulting homogenate was sonicated with a tip sonicator (10% output; 2×30 sec.) and cleared by a low speed centrifugation (10 min×9000 g; 4° C.). The microsomal fraction was collected by a high speed centrifugation (60 min×110,000 g). […]
Microsomes isolated from HEK293 cells transiently expressing human 11beta-HSD1 (for details see above) were incubated in assay buffer (100 mM NaCl; 1 mM EDTA; 1 mM EGTA; 1 mM MgCl; 250 mM Sucrose; 20 mM Tris pH 7.4; Cortisone 50-200 nM and NADPH 1 mM) together with different concentrations of test substances. […] The amount of Cortisol produced in this assay was determined using a commercially available, ELISA-based Cortisol-detection kit (Distributed by Assay Design, Inc.). […]

T1 sequence (P28845 whole entry): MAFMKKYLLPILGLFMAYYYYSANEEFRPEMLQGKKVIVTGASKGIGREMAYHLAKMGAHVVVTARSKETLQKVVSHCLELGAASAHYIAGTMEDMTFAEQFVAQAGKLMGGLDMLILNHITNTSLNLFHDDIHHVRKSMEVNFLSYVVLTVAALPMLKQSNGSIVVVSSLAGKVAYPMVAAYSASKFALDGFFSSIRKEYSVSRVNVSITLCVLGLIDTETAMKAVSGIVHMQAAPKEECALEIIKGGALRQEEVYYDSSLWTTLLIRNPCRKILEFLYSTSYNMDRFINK

IC50 (11beta-HSD1 [2]) | Compound | effect on insulin sensitivity (11beta-HSD1 [1])
– | CC1(C)[C@@H](OC(=O)CCC(=O)O)CC[C@]2(C)[C@H]3C(=O)C=C4[C@@H]5C[C@@](C)(C(=O)O)CC[C@]5(C)CC[C@@]4(C)[C@]3(C)CC[C@@H]12 [carbenoxolone] | increase in insulin sensitivity
20 nM | O=S(=O)(Nc1ccnc(C2CC2)n1)c1ccc(-c2ccccc2)cc1 [Example 5, Biphenyl-4-sulfonic acid (2-cyclopropyl-pyrimidin-4-yl)-amide] | –
167 nM | CC(C)c1nccc(NS(=O)(=O)c2ccc3ccccc3c2)n1 [Example 26, Naphthalene-2-sulfonic acid (2-isopropyl-pyrimidin-4-yl)-amide] | –
